Assay results published in ChEMBL document CHEMBL1201862, “PubChem BioAssay data set” (2004).
The source made the active and inactive calls.

Legend:
HeLa = assay: HeLa cell cytotoxicity, dose response, cytotoxicity control for MITF activator project, CellTiter-Glo luminescence, cherry-pick samples (AID 540259); format: functional, cell-based; settings: Homo sapiens
[1] = HepG2 cell cytotoxicity, dose response, cytotoxicity control, ATP luminescence, cherry-pick, set 6 (AID 1053125); format: functional, cell-based
cells [2] = settings: HEK293
[3] = target: NAD-dependent protein deacylase sirtuin-5, mitochondrial (Homo sapiens, UniProt Q9NXA8); assay: SIRT5 deacylase inhibitors, dose response, biochemical, fluorescence imaging, cherry-pick, set 6 (AID 720597)
[4] = HEK293T cytotoxicity, dose response, cytotoxicity control for miR-122 modulator project, cell-based, inhibitor set, cherry-pick, set 2 (AID 720697); format: functional
[5] = HepG2 cell cytotoxicity, dose response, cytotoxicity control, ATP luminescence, cherry-pick, activator set 2 (AID 1053143); format: functional, cell-based
[6] = insulin promoter down-regulators in MIN6 cells, imaging, high-content screening, mouse beta cells (AID 1628); format: functional
H4 = assay: Luminescence Cell-Based Dose Response HTS to Identify Activators of 5'UTR Stem-Loop Driven Prion Protein mRNA Translation in H4 Neuroglioblastoma Cells. [Related pubchem assays: 1829 (Project Summary), 1814 (Primary HTS)]; format: functional; settings: Homo sapiens
[7] = HEK293T cell cytotoxicity, dose response, cytotoxicity control, CellTiter-Glo luminescence, cherry-picked samples, set 4 (AID 743441); format: functional, cell-based; settings: HEK293
Protein Wnt-3a = Protein Wnt-3a (Mus musculus, UniProt P27467); assay: Wnt3a-driven reporter signaling inhibition, dose response, selectivity assay for Gli-SUFU antagonist project, Wnt-LIGHT cells, luminescence (AID 651570); format: functional; settings: read-out: IC50_Mean;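 also: Wnt-LIGHT reporter cells stimulated with conditioned medium from Wnt3a-producing cells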
[8] = Luminescence Cell-Based Dose Response HTS to Identify Activators of Luciferase Translation or Activity in H4 […] Cells. [Related pubchem assays: 1829 (Project Summary), 1814 (Primary HTS)]; format: functional
[9] = cytotoxicity in MIN6 insulinoma cells, dose response, cytotoxicity control, cell-based, mouse insulinoma (AID 2122); format: functional;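 also: confirmatory high-throughput counterscreen run to flag cytotoxic compounds; mouse MIN-6 beta cells carrying an insulin promoter eGFP reporter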
Jurkat = assay: antigen receptor-induced NF-kB inhibitors, dose response, Jurkat, luciferase reporter, luminescence, B- and T-cell (AID 489004); format: functional, cell-based; settings: Homo sapiens;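 also: NF-kB luciferase reporter Jurkat cells stimulated with PMA plus ionomycin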
Cytochrome P450 3A4 = Cytochrome P450 3A4 (Homo sapiens, UniProt P08684);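 also: CYP3A4 tested as one member of a cytochrome P450 panel screen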
cells [10] = format: functional, cell-based; settings: HEK-CNG
[11] = inhibitors of clade B AD8 Env fusion, dose response, cell-based, cherry-pick (AID 652062); format: functional;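 also: luciferase signal from cell-cell fusion driven by HIV-1 clade B AD8 Env; potency is for inhibitors of fusion seen as a drop in luminescence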
Galanin receptor type 3 = Galanin receptor type 3 (Homo sapiens, UniProt O60755); assay: Fluorescence-based cell-based primary high throughput dose response assay to identify antagonists of the Galanin Receptor 3 (GalR3).; format: functional
[12] = cytotoxicity in HEK-293T NF-kB-Luc cells, dose response, cytotoxicity control for B/T-cell NF-kB inhibitor project, cell-based, uHTS hits (AID 489019); format: functional;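 also: IC50 reflects cytotoxicity as loss of cell viability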
[13] = inhibitors of HIV Env-driven cell fusion, dose response, cherry-pick (AID 652057); format: functional, cell-based
[14] = ZM109 Env clade C HIV-1 fusion inhibitors, dose response, HeLa effector, CEM target cells, luciferase, cherry-pick (AID 652058); format: functional, cell-based
[15] = target: COUP transcription factor 2 (Homo sapiens, UniProt P24468); assay: Luminescence-based cell-based high throughput dose response assay to identify inhibitors of COUP-TFII (NR2F2).; format: functional;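 also: HEK293 cells transiently cotransfected with COUP-TFII expression vector and reporter; luciferase reporter luminescence driven by COUP-TFII from the pX2-168 reporter plasmid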
INS1 = assay: beta cell apoptosis inhibitors, cytokine rescue, dose response, luminescence, retest (AID 449756); format: functional, cell-based; settings: Rattus norvegicus;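 also: cell death triggered by IL-1 beta plus TNF-alpha plus IFN-gamma mixture; protective hits raise ATP signal compared with cytokine alone wells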
Cytochrome P450 2C19 = Cytochrome P450 2C19 (Homo sapiens, UniProt P33261); assay: Cytochrome panel assay with activity outcomes. Panel member name: p450-cyp2c19 Compounds with AC50 equal or less than 10 uM are considered active; format: functional; settings: read-out: AC50
[16] = CFTR ΔF508 corrector activity in bronchial cells, dose response, human bronchial epithelial cells, plate reader, cherry-pick, two tests (AID 743267); format: functional, cell-based
[17] = HEK293 cell cytotoxicity, dose response, cytotoxicity control, luminescence, dry powder, set 12 (AID 743354); format: functional, cell-based
[18] = HepG2 cell cytotoxicity, dose response, cytotoxicity control, luminescence, dry powder, set 9 (AID 743358); format: functional, cell-based
[19] = human group III sPLA2 inhibitors, dose response, biochemical, QFRET, IC50 (AID 743457);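 also: green fluorescence rise as the enzyme cleaves BODIPY PC-A2 in liposomes; potency for inhibition of the enzyme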
[20] = Artemis endonuclease inhibitor potency, dose response, biochemical, fluorescence intensity (AID 720701); format: functional;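 also: Artemis endonuclease enzyme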
Bcl-2-like protein 10 = Bcl-2-like protein 10 (Homo sapiens, UniProt Q9HD36); assay: displacers of TR3 peptide from Bcl-B, primary screen, selectivity assay for Bfl-1 inhibitor project, biochemical, fluorescence polarization, FITC-TR3 peptide (AID 748);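 also: fluorescence polarization from a fluorescein-labelled TR3 peptide binding purified Bcl-B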
Chain of Bcl-2-like protein 10 (Q9HD36 whole entry): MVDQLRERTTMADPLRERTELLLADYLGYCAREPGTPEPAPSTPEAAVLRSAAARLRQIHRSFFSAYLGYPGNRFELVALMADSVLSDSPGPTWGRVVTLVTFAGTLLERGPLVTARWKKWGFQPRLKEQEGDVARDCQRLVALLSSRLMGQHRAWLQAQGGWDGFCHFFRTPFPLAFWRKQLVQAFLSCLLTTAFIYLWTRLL

Chain of Cytochrome P450 2C19 (P33261 whole entry): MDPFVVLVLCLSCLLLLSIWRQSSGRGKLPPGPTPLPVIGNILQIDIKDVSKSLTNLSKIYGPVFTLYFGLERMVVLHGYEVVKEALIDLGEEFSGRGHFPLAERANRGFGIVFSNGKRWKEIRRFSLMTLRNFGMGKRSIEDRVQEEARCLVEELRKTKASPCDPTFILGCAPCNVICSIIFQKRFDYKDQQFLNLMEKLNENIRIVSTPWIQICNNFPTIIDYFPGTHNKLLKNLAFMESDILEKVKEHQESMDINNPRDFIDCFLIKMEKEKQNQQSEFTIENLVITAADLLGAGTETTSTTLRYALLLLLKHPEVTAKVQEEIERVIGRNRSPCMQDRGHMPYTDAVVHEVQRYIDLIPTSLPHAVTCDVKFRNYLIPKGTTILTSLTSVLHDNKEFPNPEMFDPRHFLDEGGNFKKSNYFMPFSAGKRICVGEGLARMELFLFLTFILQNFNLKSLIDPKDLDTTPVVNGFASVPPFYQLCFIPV
Chain of COUP transcription factor 2 (P24468 whole entry): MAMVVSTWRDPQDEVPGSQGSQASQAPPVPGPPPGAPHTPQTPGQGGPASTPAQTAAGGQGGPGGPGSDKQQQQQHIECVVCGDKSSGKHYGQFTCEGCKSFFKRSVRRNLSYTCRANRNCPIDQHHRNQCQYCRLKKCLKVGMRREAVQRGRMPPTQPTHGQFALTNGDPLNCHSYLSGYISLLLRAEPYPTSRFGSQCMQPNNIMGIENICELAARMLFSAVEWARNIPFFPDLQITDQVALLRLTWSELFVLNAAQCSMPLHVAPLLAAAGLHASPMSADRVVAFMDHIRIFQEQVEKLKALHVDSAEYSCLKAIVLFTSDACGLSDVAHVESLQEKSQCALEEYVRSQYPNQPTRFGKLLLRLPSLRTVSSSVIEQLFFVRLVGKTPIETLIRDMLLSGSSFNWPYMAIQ
Chain of Galanin receptor type 3 (O60755 whole entry): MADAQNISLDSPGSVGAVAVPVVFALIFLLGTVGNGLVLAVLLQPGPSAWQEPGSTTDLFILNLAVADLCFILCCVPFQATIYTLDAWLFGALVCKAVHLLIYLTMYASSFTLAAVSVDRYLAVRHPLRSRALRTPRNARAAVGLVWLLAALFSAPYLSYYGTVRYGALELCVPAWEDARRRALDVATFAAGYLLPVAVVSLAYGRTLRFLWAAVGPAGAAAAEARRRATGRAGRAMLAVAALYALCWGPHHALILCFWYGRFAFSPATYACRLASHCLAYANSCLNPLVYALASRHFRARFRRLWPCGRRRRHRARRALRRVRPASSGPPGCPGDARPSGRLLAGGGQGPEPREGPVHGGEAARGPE
Chain of Cytochrome P450 3A4 (P08684 whole entry): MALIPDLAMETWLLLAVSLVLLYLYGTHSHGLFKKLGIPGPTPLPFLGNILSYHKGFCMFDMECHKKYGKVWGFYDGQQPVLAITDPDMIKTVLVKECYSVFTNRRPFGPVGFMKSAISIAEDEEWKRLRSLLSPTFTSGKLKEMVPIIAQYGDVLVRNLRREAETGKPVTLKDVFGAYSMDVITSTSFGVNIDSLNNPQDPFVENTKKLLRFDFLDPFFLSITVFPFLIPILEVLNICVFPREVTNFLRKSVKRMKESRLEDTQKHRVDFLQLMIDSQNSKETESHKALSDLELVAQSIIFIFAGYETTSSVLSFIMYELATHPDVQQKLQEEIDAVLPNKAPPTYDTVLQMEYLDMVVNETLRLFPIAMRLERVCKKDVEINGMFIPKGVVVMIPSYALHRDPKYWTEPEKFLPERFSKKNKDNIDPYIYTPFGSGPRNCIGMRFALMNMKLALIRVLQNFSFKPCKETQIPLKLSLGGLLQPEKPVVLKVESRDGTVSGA
Chain of Protein Wnt-3a (P27467 whole entry): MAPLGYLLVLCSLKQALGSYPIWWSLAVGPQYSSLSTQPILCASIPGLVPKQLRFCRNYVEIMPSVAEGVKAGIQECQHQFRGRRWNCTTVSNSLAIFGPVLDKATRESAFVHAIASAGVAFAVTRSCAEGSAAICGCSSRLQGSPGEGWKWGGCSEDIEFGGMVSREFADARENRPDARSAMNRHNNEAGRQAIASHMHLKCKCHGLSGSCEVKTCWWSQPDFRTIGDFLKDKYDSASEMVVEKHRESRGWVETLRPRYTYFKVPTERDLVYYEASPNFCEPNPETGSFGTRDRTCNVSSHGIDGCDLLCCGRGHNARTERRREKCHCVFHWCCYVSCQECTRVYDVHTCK
Chain of NAD-dependent protein deacylase sirtuin-5, mitochondrial (Q9NXA8 whole entry): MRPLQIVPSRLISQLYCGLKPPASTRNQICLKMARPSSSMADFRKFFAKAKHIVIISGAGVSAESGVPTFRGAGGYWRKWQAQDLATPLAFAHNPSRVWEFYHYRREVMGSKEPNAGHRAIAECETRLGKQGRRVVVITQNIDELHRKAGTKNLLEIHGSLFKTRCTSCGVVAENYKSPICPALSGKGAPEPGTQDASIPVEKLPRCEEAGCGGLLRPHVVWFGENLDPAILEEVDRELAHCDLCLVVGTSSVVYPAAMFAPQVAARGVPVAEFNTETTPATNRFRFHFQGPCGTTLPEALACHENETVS

Nc1ccc(C#Cc2ccc3c(=O)c4ccccc4oc3c2)cc1
AC50 (HeLa): 59.6 µM (active) | AC50 [1]: > 52 µM (inactive) | AC50 (cells [2]): > 52 µM (inactive)

COc1ccc(S(=O)(=O)Nc2ccc3c(c2)CC(=O)N([C@H](C)CO)C[C@@H](C)[C@@H](CN(C)Cc2ccc(C(F)(F)F)cc2)O3)cc1
AC50 [3]: > 30 µM (inactive)

CC(=O)N1[C@H](CN(C(=O)c2ccc(F)cc2)C(C)C)[C@H](c2ccccc2)[C@@H]1CO
AC50 [4]: 10.5 µM (active)

CC(=O)Nc1cc2nn(-c3ccccc3)nc2cc1Cl
AC50 [5]: 4.99 µM (active)

COc1ccc(Cn2c(-c3ccc(Cl)cc3)c[n+]3ccccc23)cc1
IC50 [6]: 1.35 µM (active) | EC50 (H4): > 120 µM (not active) | AC50 [7]: 39.3 µM (active) | IC50 (Protein Wnt-3a): 36.9 µM (inactive) | EC50 [8]: > 120 µM (not active) | IC50 [9]: 1.02 µM (active)

Cc1cc(N2CCN(c3nc4ccccc4s3)CC2)n2ncnc2n1
IC50 (Jurkat): > 80 µM (inactive) | AC50 (Cytochrome P450 3A4): 39.8 µM (inconclusive) | EC50 (cells [10]): > 29.9 µM (inactive) | AC50 [11]: 5.3 µM (active) | IC50 (Galanin receptor type 3): 1.43 µM (active) | IC50 [12]: > 80 µM (inactive) | AC50 [13]: 4.63 µM (active) | AC50 [14]: 6.41 µM (active) | IC50 [15]: 6.41 µM (active) | AC50 (INS1): 5.06 µM (active) | AC50 (Cytochrome P450 2C19): 14.1 µM (inconclusive)

COc1cccc(S(=O)(=O)N2C[C@@H]3N[C@H](C2)[C@@H]3c2ccc(-c3cccc(C)c3)cc2)c1
AC50 [16]: 16 µM (active)

COC(=O)CCCCCCC(=O)N1CC[C@@H]2[C@@H](CO)N(C)c3ccc(-c4cccc(F)c4)cc3[C@@H]21
AC50 [17]: 46.1 µM (active) | AC50 [18]: > 52 µM (inactive)

CCCCn1c(S)nnc1C12CC3CC(CC(C3)C1)C2
IC50 [19]: > 122 µM (inactive)

Cc1cc(-c2csc(N)n2)c(C)n1C
IC50 [20]: > 20 µM (inactive) | IC50 (Bcl-2-like protein 10): 26 µM (active)
